In patent EP1673354B1, “ARYLINDENOPYRIDINES AND ARYLINDENOPYRIMIDINES AND THEIR USE AS ADENOSINE A2A RECEPTOR ANTAGONISTS” (Ortho-McNeil Pharmaceutical, Inc., priority 2003, dated 2005) one finds Ki data, which are given here for 37 compounds.

For one assay, the target named is T1, Adenosine A1 receptor (Homo sapiens, UniProt P30542).
T1 sequence (P30542 1-326): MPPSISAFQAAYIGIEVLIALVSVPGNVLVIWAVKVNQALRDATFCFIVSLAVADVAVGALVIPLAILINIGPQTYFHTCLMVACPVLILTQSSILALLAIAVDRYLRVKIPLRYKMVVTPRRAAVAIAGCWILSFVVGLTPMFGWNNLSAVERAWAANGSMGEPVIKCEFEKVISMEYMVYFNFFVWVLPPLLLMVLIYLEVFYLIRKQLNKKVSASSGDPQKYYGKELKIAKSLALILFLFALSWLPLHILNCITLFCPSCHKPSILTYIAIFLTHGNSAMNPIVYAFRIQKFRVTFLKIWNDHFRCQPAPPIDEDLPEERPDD
Put plainly: A1 antagonist function (no method described). The format is cell-based.

Assay [1] has as its target T2, human adenosine A2a receptors (Homo sapiens, UniProt P29274).
T2 construct: expressed in transfected cells; host or cells: CHO-K1 cells with cAMP-inducible beta-galactosidase reporter gene
Put plainly: Adenosine A2a receptor functional assay, antagonist mode (cAMP-inducible beta-galactosidase reporter, 50 nM NECA). The class given is cell-based. Conditions: CHO-K1 cells, read-out: Ki (nM) A2a antagonist function. As for the experimental part:
Adenosine A2a Receptor Functional Assay
CHO-K1 cells overexpressing human adenosine A2a receptors and containing cAMP-inducible beta-galactosidase reporter gene were seeded at 40-50K/well into 96-well tissue culture plates and cultured for two days. On assay day, cells were washed once with 200 µL assay medium (F-12 nutrient mixture/0.1 % BSA). For agonist assay, adenosine A2a receptor agonist NECA was subsequently added and cell incubated at 37°C, 5% CO2 for 5 hrs before stopping reaction. In the case of antagonist assay, cells were incubated with antagonists for 5 minutes at R.T. followed by addition of 50 nM NECA. Cells were then incubated at 37°C, 5% CO2 for 5 hrs before stopping experiments by washing cells with PBS twice. 50 µL 1X lysis buffer (Promega, 5X stock solution, needs to be diluted to 1X before use) was added to each well and plates frozen at -20°C. For β-galactosidase enzyme colorimetric assay, plates were thawed out at room temperature and 50 µL 2X assay buffer (Promega) added to each well. Color was allowed to develop at 37°C for 1 h or until reasonable signal appeared. Reaction was then stopped with 150 µL 1 M sodium carbonate. […] Data was analyzed in Microsoft Excel and GraphPad Prism programs.

For assay [2], the target named is T3, human A2a adenosine receptor (Homo sapiens, UniProt P29274).
T3 construct: purchased PerkinElmer RB-HA2a; host or cells: HEK293 cell plasma membrane
Put plainly: Ligand binding assay for adenosine A2a receptor ([3H]CGS21680, HEK293 plasma membrane). Conditions: radioligand [3H]CGS21680, HEK293 membranes, room temperature 2 hours; read-out: Ki (nM) A2a binding. On the procedure:
Ligand Binding Assay for Adenosine A2a Receptor
Ligand binding assay of adenosine A2a receptor was performed using plasma membrane of HEK293 cells containing human A2a adenosine receptor (PerkinElmer, RB-HA2a) and radioligand [^3H]CGS21680 (PerkinElmer, NET1021). Assay was set up in 96-well polypropylene plate in total volume of 200 µl by sequentially adding 20 µL1:20 diluted membrane, 130 µLassay buffer (50 mM Tris·HCl, pH7.4 10 mM MgCl2, 1 mM EDTA) containing [^3H] […] Nonspecific binding was determined by […] NECA. Reaction was carried out at room temperature for 2 hours before filtering through 96-well GF/C filter plate pre-soaked in 50 mM Tris·HCl, pH7.4 containing 0.3% polyethylenimine. Plates were then washed 5 times with cold 50 mM Tris·HCl, pH7.4, dried and sealed at the bottom. Microscintillation fluid 30 µl was added to each well and the top sealed. Plates were counted on Packard Topcount for [^3H]. Data was analyzed in Microsoft Excel and GraphPad Prism programs.

One may read the Ki as a dissociation constant, usually derived from enzyme kinetics or from competition with a known ligand.

Structures are written as SMILES.

T3 sequence (P29274 whole entry): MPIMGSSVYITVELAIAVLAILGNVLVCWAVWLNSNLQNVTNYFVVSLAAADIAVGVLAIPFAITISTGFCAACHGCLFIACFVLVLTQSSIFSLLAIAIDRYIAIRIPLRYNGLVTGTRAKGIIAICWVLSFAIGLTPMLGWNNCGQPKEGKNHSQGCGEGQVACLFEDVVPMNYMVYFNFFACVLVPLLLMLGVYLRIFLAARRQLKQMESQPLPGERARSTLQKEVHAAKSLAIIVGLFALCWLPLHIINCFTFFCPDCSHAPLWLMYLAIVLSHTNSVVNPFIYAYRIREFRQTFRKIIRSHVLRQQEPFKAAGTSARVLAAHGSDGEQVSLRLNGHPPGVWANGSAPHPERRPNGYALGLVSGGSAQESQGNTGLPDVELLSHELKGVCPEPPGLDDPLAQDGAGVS
T2 sequence (P29274 whole entry): as above

As to `Nc1nc(-c2ccc(F)cc2)c2c(n1)-c1ccccc1C2=O` [Compound 38], the inhibition constant (Ki) at Adenosine A1 receptor came to 9.44 nM; in assay [1], 0.956 nM; in assay [2] it was 2.34 nM.
The like results for `Nc1nc(-c2cccc(F)c2)c2c(n1)-c1ccccc1C2=O` [Compound 39] were, in that order, 2.31 nM, 0.926 nM and 4.92 nM.
The matching figures for `CSc1nc(N)nc2c1C(=O)c1ccccc1-2` [Compound 41]: above 3000 nM, 575 nM and 88 nM.
The matching figures for `Nc1nc(Nc2ccccc2)c2c(n1)-c1ccccc1C2=O` [Compound 43]: 2.34 nM, 3.68 nM and 39.9 nM.
For `Nc1nc(-c2ccoc2)c2c(n1)-c1ccccc1C2=O` [Compound 44], the inhibition constant (Ki) on Adenosine A1 receptor was 7.4 nM; in assay [1], 0.208 nM; in assay [2], 3.93 nM.
The like results for `Cc1ccc(-c2nc(N)nc3c2C(=O)c2ccccc2-3)o1` [Compound 45, 2-amino-4-(5-methyl-furan-2-yl)-indeno[1,2-d]pyrimidin-5-one] were, in that order, 0.016 nM, 0.005 nM and 4.01 nM.
Consider `CN(C)CCN(C)Cc1cccc2c1C(=O)c1c(-c3ccccc3)nc(N)nc1-2` [Compound 49], for which the Ki worked out at 119 nM at Adenosine A1 receptor, 40.1 nM in assay [1] and 51.1 nM in assay [2].
The matching figures for `CN1CCN(Cc2cccc3c2C(=O)c2c(-c4ccccc4)nc(N)nc2-3)CC1` [Compound 50]: 94.2 nM, 11.3 nM and 80.1 nM.
The matching figures for `Nc1nc(-c2ccccc2)c2c(n1)-c1cccc(CN3CCOCC3)c1C2=O` [Compound 51]: 32.9 nM, 3.26 nM and 36.8 nM.
Consider `CCN(CC)Cc1cccc2c1C(=O)c1c(-c3ccccc3)nc(N)nc1-2` [Compound 52], for which the Ki stood at 107 nM at Adenosine A1 receptor, 18.3 nM in assay [1] and 94.4 nM in assay [2].
The like results for `Nc1nc(-c2ccccc2)c2c(n1)-c1cccc(CN3CCCCC3)c1C2=O` [Compound 53] were, in that order, 40.8 nM, 14.2 nM and 64.2 nM.
The like results for `COC(=O)C1CCCCN1Cc1cccc2c1C(=O)c1c(-c3ccccc3)nc(N)nc1-2` (stereo not drawn) [Compound 54] were, in that order, 19.6 nM, 3.19 nM and 40.8 nM.
The like results for `CCOC(=O)C1CCCN(Cc2cccc3c2C(=O)c2c(-c4ccccc4)nc(N)nc2-3)C1` (stereo not drawn) [Compound 55] were, in that order, 19.9 nM, 5.84 nM and 32.8 nM.
Take `COC(=O)CN(C)Cc1cccc2c1C(=O)c1c(-c3ccccc3)nc(N)nc1-2` [Compound 56]: the Ki at Adenosine A1 receptor came to 25.8 nM; in assay [1], 6.81 nM; in assay [2], 25.7 nM.
Take `Nc1nc(-c2ccccc2)c2c(n1)-c1cccc(CN3CCCC(CO)C3)c1C2=O` (stereo not drawn) [Compound 57]: the Ki amounted to 39.3 nM at Adenosine A1 receptor, 15.9 nM in assay [1] and 34 nM in assay [2].
The matching figures for `CC(=O)N1CCN(Cc2cccc3c2C(=O)c2c(-c4ccccc4)nc(N)nc2-3)CC1` [Compound 59]: 34.1 nM, 7.94 nM and 40.8 nM.
The matching figures for `N#Cc1c(N)nc(-c2ccccc2)c2c1-c1ccccc1C2=O` [Compound 64]: 4.61 nM, 0.138 nM and 13.1 nM.
As to `Nc1nc(-c2ccccc2)c2c(c1C(=O)O)-c1ccccc1C2=O` [Compound 65], the results for the Ki (on Adenosine A1 receptor; in assay [1]; in assay [2]) were 163 nM, 245 nM and 575 nM, respectively.
With `N#Cc1c(N)nc(-c2ccoc2)c2c1-c1ccccc1C2=O` [Compound 66], the results for the Ki (at Adenosine A1 receptor; in assay [1]; in assay [2]) were 15.6 nM, 0.069 nM and 4.21 nM, respectively.
The matching figures for `N#Cc1c(N)nc(-c2cccc(F)c2)c2c1-c1ccccc1C2=O` [Compound 67]: 4.37 nM, 0.618 nM and 13.4 nM.
The matching figures for `N#Cc1c(N)nc(-c2cccnc2)c2c1-c1ccccc1C2=O` [Compound 68]: 34.8 nM, 0.73 nM and 7.59 nM.
For the compound `Nc1nc(-c2ccco2)c2c(c1C(=O)O)-c1ccccc1C2=O` [Compound 69], the Ki was above 1000 nM on Adenosine A1 receptor, 90.2 nM in assay [1] and 2260 nM in assay [2].
The like results for `N#Cc1c(N)nc(-c2ccc(F)cc2)c2c1-c1ccccc1C2=O` [Compound 71] were, in that order, 2.42 nM, 3.39 nM and 17.2 nM.
The like results for `N#Cc1c(N)nc(-c2cccs2)c2c1-c1ccccc1C2=O` [Compound 72] were, in that order, 6.24 nM, 2.54 nM and 12.6 nM.
The like results for `N#Cc1c(N)nc(-c2ccsc2)c2c1-c1ccccc1C2=O` [Compound 73] were, in that order, 9.7 nM, 0.06 nM and 4.92 nM.
Turning to `COc1cccc(-c2nc(N)c(C#N)c3c2C(=O)c2ccccc2-3)c1` [Compound 74], the values for the Ki (at Adenosine A1 receptor; in assay [1]; in assay [2]) were 7.28 nM, 5.7 nM and 14.7 nM, respectively.
Consider `N#Cc1c(N)nc(-c2ncc[nH]2)c2c1-c1ccccc1C2=O` [Compound 75], for which the inhibition constant (Ki) at Adenosine A1 receptor came to 78.3 nM; in assay [1], 1.51 nM; in assay [2], 23.7 nM.
The matching figures for `CN(C)CCNC(=O)c1c(N)nc(-c2ccco2)c2c1-c1ccccc1C2=O` [Compound 76]: above 500 nM, 22.1 nM and 33 nM.
As to `N#Cc1c(N)nc(-c2ccco2)c2c1-c1c(F)c(F)c(F)c(F)c1C2=O` [Compound 79], the results for the inhibition constant Ki (on Adenosine A1 receptor; in assay [1]; in assay [2]) were above 1000 nM, 12.5 nM and 8.03 nM, respectively.
The like results for `CN1CCN(C(=O)c2c(N)nc(-c3ccco3)c3c2-c2ccccc2C3=O)CC1` [Compound 80] were, in that order, 56 nM, 15.9 nM and 69.1 nM.
The like results for `CN(C)CCOC(=O)c1c(N)nc(-c2ccccc2)c2c1-c1ccccc1C2=O` [Compound 81, 9H-indeno[2,1-c]pyridine-4-carboxylic acid, 3-amino-1-phenyl-9-oxo-, 2-dimethylamino-ethyl ester] were, in that order, 33.6 nM, 29 nM and 229 nM.
Regarding `CN1CCCC1COC(=O)c1c(N)nc(-c2ccco2)c2c1-c1ccccc1C2=O` (stereo not drawn) [Compound 82, 9H-indeno[2,1-c]pyridine-4-carboxylic acid, 3-amino-1-furan-2-yl-9-oxo-, 1-methyl-pyrrolidin-2-ylmethyl ester], the inhibition constant Ki on Adenosine A1 receptor came out at 29.6 nM; in assay [1] it was 1.36 nM; in assay [2] it was 20.2 nM.
The like results for `CN1CCN(CCCOC(=O)c2c(N)nc(-c3ccccc3)c3c2-c2ccccc2C3=O)CC1` [Compound 83] were, in that order, 117 nM, 74.9 nM and 200 nM.
The matching figures for `Nc1nc(-c2ccccc2)c2c(c1C(=O)OCCCN1CCOCC1)-c1ccccc1C2=O` [Compound 84]: 27.4 nM, 24.7 nM and 174 nM.
Regarding `CC(C)Cc1nc(N)c(C#N)c2c1C(=O)c1ccccc1-2` [Compound 86], the Ki at Adenosine A1 receptor is 39.3 nM; in assay [1] it was above 1000 nM; in assay [2] it was 244 nM.
The matching figures for `CN(C)CCCOC(=O)c1c(N)nc(-c2ccccc2)c2c1-c1ccccc1C2=O` [Compound 87]: above 300 nM, 39.5 nM and 98.9 nM.
Regarding `Nc1nc(-c2ccccc2)c2c(c1C(=O)OCCN1CCCC1)-c1ccccc1C2=O` [Compound 88], the figures for the Ki (on Adenosine A1 receptor; in assay [1]; in assay [2]) were above 300 nM, 48.9 nM and 130 nM, respectively.
